Reference: patent publication US20220289768A1, “HETEROCYCLIC COMPOUNDS AS STING MODULATORS” (BEIGENE, LTD., priority 2019, published 2022)

What was measured:
[1] = test system: hSTING-R232 in THP1-Dual KI-hSTING-R232 Cells; experiment: STING cellular assay in THP1-Dual KI-hSTING-R232 cells (Lucia luciferase IRF reporter); format: cell-based; settings: Homo sapiens, 24 h incubation, QUANTI-Luc readout, 1 nM-10 μM
Source text: (§1) STING Cellular Assay in THP1-Dual™ Cells
(§2) THP1-Dual™ cells were derived from the human THP-1 monocyte cell line by stable integration of two inducible reporter constructs. THP1-Dual™ cells feature the Lucia luciferase gene, a new secreted luciferase reporter gene, under the control of an ISG54 (interferon-stimulated gene) minimal promoter in conjunction with five interferon (IFN)-stimulated response elements. THP1-Dual™ cells also express a secreted embryonic alkaline phosphatase (SEAP) reporter gene driven by an IFN-β minimal promoter fused to five copies of the NF-κB consensus transcriptional response element and three copies of the c-Rel binding site. As a result, THP1-Dual™ cells allow the simultaneous study of the NF-κB pathway, by monitoring the activity of SEAP, and the interferon regulatory factor (IRF) pathway, by assessing the activity of Lucia luciferase. Both reporter proteins are readily measurable in the cell culture supernatant when using QUANTI-Blue™, a SEAP detection reagent, and QUANTI-Luc™, a Lucia luciferase detection reagent.
(§3) Distinct variants of human STING (hSTING) that affect CDN recognition and signal transduction have been identified: • R232 (R71-G230-R232-R293): the most prevalent in the human population (˜60%). Referred as the “wild-type” or 232R-RGR allele2. • HAQ (H71-A230-R232-Q293): contains three non-synonymous single nucleotide substitutions; R71H, G230A and R293Q. This allele, found in ˜20% of the population, is less sensitive to CDNs than the “wild-type” allele2.
(§4) Growth Medium: RPMI 1640, 2 mM L-glutamine, 25 mM HEPES, 10% heat-inactivated fetal bovine serum (30 min at 56° C.), 100 μg/mL Normocin™, Pen-Strep (100 U/mL-100 μg/mL)
(§5) 1. After cells have recovered (after at least one passage), maintain and subculture the cells in growth medium. (To maintain selection pressure, add 10 μg/mL of blasticidin and 100 μg/mL of Zeocin™ to the growth medium every other passage.) 2. Pass the cells every 3 days by inoculating 7×10^5 cells/ml.
(§6) Experimental Procedure • 1. Add 180 μL of cell suspension (˜100,000 cells) per well of a flat-bottom 96-well plate (costar 3599). • 2. Then compounds were added with serial dilutions over 10 points with a 1 nM-10 μM final concentration range in 0.10% DMSO/growth medium. • 3. Incubate the plate for 24 h at 37° C., 5% CO2. • 4. Set the BMG PHERAstar FSX instrument with the following parameters: 50 μL of injection, end-point measurement with a 4 second start time and 0.1 second reading time. • 5. Pipet 10 μL of THP1-Dual™ cell culture medium per well into a 96-well white opaque plate (Corning 3903). • 6. Add 50 μL of QUANTI-Luc assay solution to each well and gently tap the plate several times to mix. Proceed immediately with the measurement.

[2] = test system: STING in THP1-Dual Cells; experiment: STING cellular assay in THP1-Dual cells (Lucia luciferase IRF reporter); format: cell-based; settings: Homo sapiens, 24 h incubation, QUANTI-Luc readout, 1 nM-10 μM
Source text: as §1, §2, §3, §4, §5, §6

Row | EC50 [1] | EC50 [2] | SMILES
1 | > 10 µM | > 10 µM | CCn1nc(C)cc1-c1nc(Cl)c2c3cc(C(N)=O)cc(OC)c3n(C/C=C/Cn3c4nc(-c5cc(C)nn5CC)nc(Cl)c4c4cc(C#N)cc(OCCCN5CCOCC5)c43)c2n1 [Example 1, (E)-4-chloro-9-(4-(4-chloro-6-cyano-2-(1-ethyl-3-methyl-1H-pyrazol-5-yl)-8-(3-morpholinopropoxy)-9H-pyrimido[4,5-b]indol-9-yl)but-2-en-1-yl)-2-(1-ethyl-3-methyl-1H-pyrazol-5-yl)-8-methoxy-9H-pyrimido[4,5-b]indole-6-carboxamide]
2 | 3.23 µM | > 10 µM | CCn1nc(C)cc1-c1nc(O)c2c3cc(C(N)=O)cc(OC)c3n(C/C=C/Cn3c4nc(-c5cc(C)nn5CC)nc(O)c4c4cc(C(N)=O)cc(OCCCN5CCOCC5)c43)c2n1 [Example 2, (E)-9-(4-(6-carbamoyl-2-(1-ethyl-3-methyl-1H-pyrazol-5-yl)-4-hydroxy-8-(3-morpholinopropoxy)-9H-pyrimido[4,5-b]indol-9-yl)but-2-en-1-yl)-2-(1-ethyl-3-methyl-1H-pyrazol-5-yl)-4-hydroxy-8-methoxy-9H-pyrimido[4,5-b]indole-6-carboxamide; trifluoroacetic acid]
3 | 0.0037 µM | 0.182 µM | CCn1nc(C)cc1-c1nc(Cl)c2c3cc(C(N)=O)cc(OC)c3n(C/C=C/Cn3c4nc(-c5cc(C)nn5CC)nc(Cl)c4c4cc(C(N)=O)cc(OCCCN5CCOCC5)c43)c2n1 [Example 3, (E)-9-(4-(6-carbamoyl-4-chloro-2-(1-ethyl-3-methyl-1H-pyrazol-5-yl)-8-(3-morpholinopropoxy)-9H-pyrimido[4,5-b]indol-9-yl)but-2-en-1-yl)-4-chloro-2-(1-ethyl-3-methyl-1H-pyrazol-5-yl)-8-methoxy-9H-pyrimido[4,5-b]indole-6-carboxamide; trifluoroacetic acid]
4 | 0.0015 µM | 0.0035 µM | CCn1nc(C)cc1-c1ncc2c3cc(C(N)=O)cc(OC)c3n(C/C=C/Cn3c4nc(-c5cc(C)nn5CC)ncc4c4cc(C(N)=O)cc(OCCCN5CCOCC5)c43)c2n1 [Example 4, (E)-9-(4-(6-carbamoyl-2-(1-ethyl-3-methyl-1H-pyrazol-5-yl)-8-(3-morpholinopropoxy)-9H-pyrimido[4,5-b]indol-9-yl)but-2-en-1-yl)-2-(1-ethyl-3-methyl-1H-pyrazol-5-yl)-8-methoxy-9H-pyrimido[4,5-b]indole-6-carboxamide; formic acid]
